{
  "source": "ChEMBL document CHEMBL1135283",
  "about": "“Carbonic anhydrase activators: human isozyme II is strongly activated by oligopeptides incorporating the carboxyterminal sequence of the bicarbonate anion exchanger AE1” (Bioorg Med Chem Lett, 2002)",
  "key": {"[1]": {"target": "T1, Carbonic anhydrase 4 (Bos taurus) (UniProt Q95323)", "T1 sequence (whole entry)": "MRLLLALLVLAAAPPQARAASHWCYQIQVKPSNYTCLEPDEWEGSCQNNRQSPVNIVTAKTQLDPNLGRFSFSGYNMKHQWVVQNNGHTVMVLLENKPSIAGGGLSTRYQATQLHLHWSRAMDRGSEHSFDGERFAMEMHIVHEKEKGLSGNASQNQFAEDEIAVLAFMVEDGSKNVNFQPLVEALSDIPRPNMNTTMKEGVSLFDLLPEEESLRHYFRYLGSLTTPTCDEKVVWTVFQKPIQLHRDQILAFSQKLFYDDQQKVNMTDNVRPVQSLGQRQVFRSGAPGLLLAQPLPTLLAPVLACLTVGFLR", "test": "Tested in vitro for activation of carbonic anhydrase IV (bCA IV), purified from bovine lung microsomes", "details": "Microsome"}, "[2]": {"target": "Carbonic anhydrase 1 (Homo sapiens) (UniProt P00915)", "sequence (P00915 2-261 limits assumed)": "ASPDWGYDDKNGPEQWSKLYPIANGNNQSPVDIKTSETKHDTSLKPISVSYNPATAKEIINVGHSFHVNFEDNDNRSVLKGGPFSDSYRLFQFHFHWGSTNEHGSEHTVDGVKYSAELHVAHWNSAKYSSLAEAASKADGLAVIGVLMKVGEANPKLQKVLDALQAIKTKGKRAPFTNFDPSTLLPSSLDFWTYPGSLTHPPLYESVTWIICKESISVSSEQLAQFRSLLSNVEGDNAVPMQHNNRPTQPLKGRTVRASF", "test": "Tested in vitro for activation of Human cloned isozyme carbonic anhydrase I (hCA I)"}, "[3]": {"target": "Carbonic anhydrase 2 (Homo sapiens) (UniProt P00918)", "test": "Tested in vitro for activation of Human cloned isozyme carbonic anhydrase II (hCA II)"}},
  "note": "Where a SMILES comes first, the peptide text is derived from it. The star is where a group is joined. Boc = CC(C)(C)OC(=O)*",
  "data": [
    {"smiles": "CC(C)(C)OC(=O)N[C@@H](CC(=O)O)C(=O)N[C@@H](CC(=O)O)C(=O)N[C@@H](CC(=O)O)C(=O)O", "note": "(Boc-Asp-Asp-Asp-OH)", "values": [
      {"measurement": "KA", "setting": "[1]", "value": "> 200", "unit": "µM"},
      {"measurement": "KA", "setting": "[2]", "value": "> 200", "unit": "µM"},
      {"measurement": "KA", "setting": "[3]", "value": 145, "unit": "µM"}
    ]},
    {"smiles": "CC(C)(C)OC(=O)N[C@@H](CC(=O)O)C(=O)N[C@@H](CC(=O)O)C(=O)O", "note": "(Boc-Asp-Asp-OH)", "values": [
      {"measurement": "KA", "setting": "[1]", "value": "> 200", "unit": "µM"},
      {"measurement": "KA", "setting": "[2]", "value": "> 200", "unit": "µM"},
      {"measurement": "KA", "setting": "[3]", "value": "> 200", "unit": "µM"}
    ]},
    {"smiles": "CC(C)(C)OC(=O)N[C@@H](CC(=O)O)C(=O)N[C@@H](CC(=O)O)C(=O)N[C@@H](CC(=O)O)C(=O)N[C@@H](CC(=O)O)C(=O)O", "note": "(Boc-DDDD-OH)", "values": [
      {"measurement": "KA", "setting": "[1]", "value": "> 200", "unit": "µM"},
      {"measurement": "KA", "setting": "[2]", "value": "> 200", "unit": "µM"},
      {"measurement": "KA", "setting": "[3]", "value": 124, "unit": "µM"}
    ]},
    {"smiles": "C[C@H](NC(=O)[C@@H](N)CC(=O)O)C(=O)N[C@@H](CC(=O)O)C(=O)O", "note": "(H-Asp-Ala-Asp-OH)", "values": [
      {"measurement": "KA", "setting": "[1]", "value": 48, "unit": "µM"},
      {"measurement": "KA", "setting": "[2]", "value": 38, "unit": "µM"},
      {"measurement": "KA", "setting": "[3]", "value": 10, "unit": "µM"}
    ]},
    {"smiles": "N[C@@H](CC(=O)O)C(=O)O", "values": [
      {"measurement": "KA", "setting": "[1]", "value": 60, "unit": "µM"},
      {"measurement": "KA", "setting": "[2]", "value": 48, "unit": "µM"},
      {"measurement": "KA", "setting": "[3]", "value": 130, "unit": "µM"}
    ]},
    {"smiles": "C[C@H](NC(=O)[C@H](CC(=O)O)NC(=O)OC(C)(C)C)C(=O)N[C@@H](CC(=O)O)C(=O)N[C@@H](CC(=O)O)C(=O)O", "note": "(Boc-DADD-OH)", "values": [
      {"measurement": "KA", "setting": "[1]", "value": "> 200", "unit": "µM"},
      {"measurement": "KA", "setting": "[2]", "value": "> 200", "unit": "µM"},
      {"measurement": "KA", "setting": "[3]", "value": 131, "unit": "µM"}
    ]},
    {"smiles": "C[C@H](N)C(=O)O", "values": [
      {"measurement": "KA", "setting": "[1]", "value": 66, "unit": "µM"},
      {"measurement": "KA", "setting": "[2]", "value": 54, "unit": "µM"},
      {"measurement": "KA", "setting": "[3]", "value": 150, "unit": "µM"}
    ]},
    {"smiles": "N[C@@H](CC(=O)O)C(=O)N[C@@H](CC(=O)O)C(=O)O", "note": "(H-Asp-Asp-OH)", "values": [
      {"measurement": "KA", "setting": "[1]", "value": 51, "unit": "µM"},
      {"measurement": "KA", "setting": "[2]", "value": 39, "unit": "µM"},
      {"measurement": "KA", "setting": "[3]", "value": 21, "unit": "µM"}
    ]},
    {"smiles": "N[C@@H](CC(=O)O)C(=O)N[C@@H](CC(=O)O)C(=O)N[C@@H](CC(=O)O)C(=O)O", "note": "(H-Asp-Asp-Asp-OH)", "values": [
      {"measurement": "KA", "setting": "[1]", "value": 45, "unit": "µM"},
      {"measurement": "KA", "setting": "[2]", "value": 40, "unit": "µM"},
      {"measurement": "KA", "setting": "[3]", "value": 11, "unit": "µM"}
    ]},
    {"smiles": "N[C@@H](CC(=O)O)C(=O)N[C@@H](CC(=O)O)C(=O)N[C@@H](CC(=O)O)C(=O)N[C@@H](CC(=O)O)C(=O)O", "note": "(H-DDDD-OH)", "values": [
      {"measurement": "KA", "setting": "[1]", "value": 43, "unit": "µM"},
      {"measurement": "KA", "setting": "[2]", "value": 35, "unit": "µM"},
      {"measurement": "KA", "setting": "[3]", "value": 0.1, "unit": "µM"}
    ]},
    {"smiles": "C[C@H](N)C(=O)N[C@@H](C)C(=O)O", "note": "(H-Ala-Ala-OH)", "values": [
      {"measurement": "KA", "setting": "[1]", "value": 62, "unit": "µM"},
      {"measurement": "KA", "setting": "[2]", "value": 50, "unit": "µM"},
      {"measurement": "KA", "setting": "[3]", "value": 110, "unit": "µM"}
    ]},
    {"smiles": "C[C@H](NC(=O)[C@@H](N)CC(=O)O)C(=O)O", "note": "(H-Asp-Ala-OH)", "values": [
      {"measurement": "KA", "setting": "[1]", "value": 55, "unit": "µM"},
      {"measurement": "KA", "setting": "[2]", "value": 40, "unit": "µM"},
      {"measurement": "KA", "setting": "[3]", "value": 33, "unit": "µM"}
    ]},
    {"smiles": "C[C@H](NC(=O)[C@@H](N)CC(=O)O)C(=O)N[C@@H](CC(=O)O)C(=O)N[C@@H](CC(=O)O)C(=O)O", "note": "(H-DADD-OH)", "values": [
      {"measurement": "KA", "setting": "[1]", "value": 46, "unit": "µM"},
      {"measurement": "KA", "setting": "[2]", "value": 36, "unit": "µM"},
      {"measurement": "KA", "setting": "[3]", "value": 0.2, "unit": "µM"}
    ]},
    {"smiles": "CC(=O)N[C@@H](CC(=O)O)C(=O)N[C@@H](CC(=O)O)C(=O)O", "note": "(Ac-Asp-Asp-OH)", "values": [
      {"measurement": "KA", "setting": "[1]", "value": "> 200", "unit": "µM"},
      {"measurement": "KA", "setting": "[2]", "value": "> 200", "unit": "µM"},
      {"measurement": "KA", "setting": "[3]", "value": "> 200", "unit": "µM"}
    ]},
    {"smiles": "CC(C)(C)OC(=O)N[C@@H](CC(=O)O)C(=O)O", "values": [
      {"measurement": "KA", "setting": "[1]", "value": "> 200", "unit": "µM"},
      {"measurement": "KA", "setting": "[2]", "value": "> 200", "unit": "µM"},
      {"measurement": "KA", "setting": "[3]", "value": "> 200", "unit": "µM"}
    ]},
    {"smiles": "CC(=O)N[C@@H](CC(=O)O)C(=O)N[C@@H](C)C(=O)O", "note": "(Ac-Asp-Ala-OH)", "values": [
      {"measurement": "KA", "setting": "[1]", "value": "> 200", "unit": "µM"},
      {"measurement": "KA", "setting": "[2]", "value": "> 200", "unit": "µM"},
      {"measurement": "KA", "setting": "[3]", "value": "> 200", "unit": "µM"}
    ]}
  ]
}
